Measurements taken from patent US5589461A, “Active substance for inhibiting the proliferation rate of hepatocytes” (priority 1994, dated 1996).
Where “and” joins values, the source holds several entries; their conditions need not be identical. Identical values can stand only once. Where a SMILES comes first, the peptide text is derived from it.

Tests used:
[1] = system: hepatocytes; experiment: proliferation rate of hepatocytes in rats after 66% partial hepatectomy (3H-thymidine, specific radioactivity of DNA); type: in vivo, rat
Source text: To carry out these experiments, young female Wistar rats weighing 100 g were used, which had been provided from the SPF animal house department of the Max-Planck-Instut fur Biochemie in D-82152 Martinstied.
Seven groups of rats were subjected to 66% partial hepatectomy. In each experimental group 4 animals were used. In a slight modification of the Higgins and Anderson method (Higgins, G. M., Anderson, R. M., Archives of Pathology 12 (1931), p. 186-202), the rats were submitted to partial hepatectomy between 13.00 h and 13.30 h. The tetrapeptide SDKP synthesized in the conventional way and dissolved in 1 ml of 0.9% NaCl was injected intraperitoneally (i.p.) to three groups immediately after operation and to three other groups 10 hrs after the operation, each three with different quantities (500 μg, 1 μg). The seventh group served as a control group, receiving the solvent only. […] The livers were conserved at -20° C. up to the time of determining the specific radioactivity of the DNA in the hepatocyte nuclei.
This specific radioactivity was used as a marker for the proliferation behaviour of the hepatocytes: Thymidine is incorporated only in DNA (not e.g. in RNA), and significant DNA synthesis is effected only during cell proliferation. The specific radioactivity of the DNA (in dpm/μg DNA) is the quotient of the result of radioactivity measurement of a sample (in dpm, i.e. disintegrations per minute) by the DNA content of that sample (in μg). The proliferation promoting or proliferation inhibiting character of the peptide (depending on the administered dose and the time of administration after partial hepatectomy) was determined by establishing the percentage of the specific radioactivity of the DNA in the hepatocyte nuclei of the experimental group as compared with the specific radioactivity of the control group associated with each experiment.
For determination of the specific radioactivity, the DNA was first extracted from the liver. […]
For measurement of the radioactivity, scintillation counting liquid was added to 1 ml of the extract, and ^3 H measurement was effected. […]

[2] = system: YOSHIDA liver tumor cell ascites AH 130; experiment: development of the YOSHIDA ascites AH 130 in rat; type: in vivo
Description: Two groups, each comprising five female Wistar rats weighing approx. 100 grams, were inoculated with the YOSHIDA liver tumor cell ascites AH 130 of a rat having been infected 8 days ago. 0.5 ml of ascites fluid were injected intraperitoneally (i.p.) to each animal. Starting on the seventh day after ascites inoculation, 1 μg of SDK (dissolved in 1 ml of 0.9% NaCl solution) was injected i.p. to each animal of one group (five rats) during four days. Then the animals of both groups were killed. The following parameters were determined:
(a) Weight or respectively volume of ascites fluid. The killed rats were weighed, the ascites was sucked off as completely as possible, and the animals were weighed again. The difference resulting from these two ponderations corresponded to the ascites volume (1 g ≈1 ml).
(b) Number of tumor cells in the ascites 2 ml of the sucked-off ascites for each animal were placed into an EDTA tube, to prevent cells from agglomerating. With an aliquot thereof, the number of tumor cells was measured in a Coulter counter and extrapolated for the total volume.
The third and fourth columns give the respective results of twin measurements.

[3] = system: Hep G2 cells; experiment: human tumor cells in tissue culture (cell growth, 3H-thymidine incorporation); type: cell-based
Description: The effect of the tripeptide on human tumor cells was tested in an in-vitro model. For this purpose, Hep G2 cells were used. This cell line is a human hepatom from the tumor cell bank of "Deutsches Krebsforschungszentrum Heidelberg ", which is cultivated as a monolayer in 90% DMEM (Dulbecco's modified Eagle's medium)/10% FKS (fetal calf serum) in a subculture interval of three to five days. Sixty dishes of each of the experimental and control cultures were used. A solution of 20 mg of SDK in 0.2 ml of 0.9% NaCl served as a stock solution which was diluted with a physiological sodium chloride solution as required for each case.
One day after transferring the cells, 0.2 ml of tripeptide SDK dissolved in 0.9% NaCl (concentration: 1 μg/ml) were added to each 10 ml of culture medium. The control dishes received 0.2 ml of solvent.
This test was repeated, this time adding 0.5 ng, 1.0 ng, 2.0 ng and 4.0 ng of SDK in 0.9% NaCl per 1 ml of culture medium. The control dishes again received the corresponding quantity of solvent. Moreover, 0.05 mCi 6-^3 H-thymidine were added to the cultures […] prior to expiration of the observation period, followed by incubation for 1 hour. The DNA of the cells was isolated as described under item (1.), and the radioactivity was measured- The results are listed in the following chart.

[4] = system: hepatitis B viruses; experiment: synthesis of hepatitis B viruses in transfected Hep G2 cells (HBSAG/HBEAG radioimmunoassay); type: cell-based; conditions: for Ratio of mean values in cpm before/after treatment, HBEAG / Ratio of mean values in cpm before/after treatment, HBSAG: six days
Source text: Hepatitis B viruses can be cultivated in Hep G2 cells. For this purpose, a recombining plasmide containing the complete virus DNA is channelled into the cells. Starting from this, the synthesizing mechanism of the cells transfected in this way will produce hepatitis B viruses (cf. Chungming Chang et al., EMBO J. 6, p. 675-680, 1987) The virus synthesis manifests itself by secreting large quantities of two surface antigens of that virus (HBSAG and HBEAG). The antigens can be detected by means of a radioimmunoassay (RIA). In this determination, an unknown quantity of antigen (HBSAG and HBEAG) competes with a known quantity of radioactively marked antigen for a limited number of antibody binding positions in a predetermined quantity of the antiserum. In the state of equilibrium, the surplus antigen exists in both the bound and the free dissolved conditions. Now, if the quantity of radioactively marked antigen is constant in a series of reactions, the proportion bound to the antibody will decrease in accordance with an increasing quantity of unmarked antigen added to the individual samples.
For practical execution of this process, a calibration curve is established first, using known quantities of marked and unmarked antigen, which will then permit determination of the unknown quantity of antigen. After incubation, the free antigen is separated from the bound antigen, and the two fractions are measured separately.
A Hep-G2 cell culture was steadily transfected with hepatitis B viruses as described by SELLS et al., Proc. Natl. Acad. Sci. USA 1987, 84, p. 1005-1009. The transfected cells were sowed in ten 4.5 cm dishes at a density of 8×10^5 cells, and in four 9 cm dishes at a density of 1.6×10^6 cells respectively. After 24 hours, fresh medium was added, containing the tripeptide SDK at concencentrations of 0.5 ng/ml, 1.0 ng/ml, 3.0 ng/ml and 5 ng/ml for each two 4.9 cm dishes, or 1.0 ng/ml for each two 9 cm dishes respectively. The tripeptide had been prediluted in completed DMEM ([…]) and sterilized by filtration. The remaining dishes served as a control, receiving the pure medium. The old medium was conserved in the supernatant for measurement of antigens, in order to exclude artifacts due to possible heterogeneities of cell density. The samples of medium for measurement of antigens were taken after six days. Measurement was effected using a standard RIA kit (HBSAG Ansria II/125, type 7802, and HBEAG Abbott Hbe (rDNA), type 1237/24, both from Abbott, Wiesbaden), according to instructions for use. The experiments were conducted with twin samples (two dishes each), since the cells from one dish were not enough.

[5] = system: human T-cells; conditions: cited from earlier work
[6] = system: IgM secreting B-lymphocytes; conditions: mice; cited from earlier work
[7] = 0.5 ng of SDK per ml of medium, 4.5 cm dishes
[8] = 1.0 ng of SDK per ml of medium, 4.5 cm dishes
[9] = 1.0 ng of SDK per ml of medium, 9.0 cm dishes
[10] = 3.0 ng of SDK per ml of medium, 4.5 cm dishes
[11] = 5.0 ng of SDK per ml of medium, 4.5 cm dishes

SMILES: NCCCC[C@H](NC(=O)[C@H](CC(=O)O)NC(=O)[C@@H](N)CO)C(=O)O [SDK, Ser-Asp-Lys] (H-Ser-Asp-Lys-OH)
- effect on hepatocyte proliferation ([1]; 1 μg injected after a certain time interval (1 h, 3, 6, 10 hrs after operation)): inhibiting effect
- effect on hepatocyte proliferation ([1]; 1 μg injected immediately after operation): slightly proliferation promoting effect
- decrease in proliferation ([1]; 1 μg injected ten hours after operation): about fifty
- average number of tumor cells as % of the number found in control animals ([2]; 1 μg SDK/animal i.p. during four days): 19.1%
- Ascites ([2]; 1 μg SDK/animal i.p. during four days from seventh day after ascites inoculation): 5.1 mL and 5.2 mL and 4.3 mL and 5.7 mL
- quantity of ascites ([2]; 1 μg SDK/animal vs control): drastic decrease
- total number of tumor cells ([2]; 1 μg SDK/animal vs control): drastic decrease
- Cell number total, mean value + standard deviation ([2]; 1 μg SDK/animal, five rats): 147.7 ± 70.1 × 10^6
- Inhibition of proliferation in % ([3]; 0.5 ng of SDK per ml of medium): 19.3%
- Inhibition of proliferation in % ([3]; 1.0 ng of SDK per ml of medium): 44.9%
- Inhibition of proliferation in % ([3]; 2.0 ng of SDK per ml of medium): 34.0%
- Inhibition of proliferation in % ([3]; 4.0 ng of SDK per ml of medium): 12.4%
- concentration of maximum proliferation inhibiting effect ([3]; Hep G2, per ml of culture medium): 1 ng/mL
- Ratio of mean values in cpm before/after treatment, HBEAG [4, 7]: 6.10
- Ratio of mean values in cpm before/after treatment, HBSAG [4, 7]: 4.47
- Ratio of mean values in cpm before/after treatment, HBEAG [4, 8]: 6.22
- Ratio of mean values in cpm before/after treatment, HBSAG [4, 8]: 4.18
- Ratio of mean values in cpm before/after treatment, HBEAG [4, 9]: 6.59
- Ratio of mean values in cpm before/after treatment, HBSAG [4, 9]: 3.89
- Ratio of mean values in cpm before/after treatment, HBEAG [4, 10]: 7.31
- Ratio of mean values in cpm before/after treatment, HBSAG [4, 10]: 4.57
- Ratio of mean values in cpm before/after treatment, HBEAG [4, 11]: 8.00
- Ratio of mean values in cpm before/after treatment, HBSAG [4, 11]: 4.18
- concentration of antigens, and hence the virus synthesis ([4]; transfected Hep G2 cells, SDK vs untreated): significantly reduced
- rosette formation due to interaction of human T-cells and sheep erythrocytes [5]: inhibits rosette formation
- immunomodulating effect: humoral response (generation of IgM secreting B-lymphocytes) to red blood cells of sheep [6]: stimulation of the humoral response
